Reference: US8466088B2, “Herbicidal compositions containing benzoylpyrazole compounds” (Ishihara Sangyo Kaisha, Ltd., priority 2007, dated 2013)
Where two headings read alike, the source gives them in different places.

Assays:
crabgrass = test: Example 1: pot test, foliar treatment, visually observed growth inhibition of crabgrass; format: in vivo
Text: (§1) When the herbicidal activity in a case where two active ingredients are combined, is larger than the simple sum of the respective herbicidal activities of the two active ingredients (the expected activity), it is called a synergistic effect. The activity expected by the combination of two active ingredients can be calculated as follows (Colby S. R., “Weed”, vol. 15, p. 20-22, 1967). E=α+β−(α×β+100) where
(§2) α: growth inhibition rate when treated with x (g/ha) of herbicide X,
(§3) β: growth inhibition rate when treated with y (g/ha) of herbicide Y,
(§4) E: growth inhibition rate expected when treated with x (g/ha) of herbicide X and y (g/ha) of herbicide Y.
(§5) That is, when the actual growth inhibition rate (measured value) is larger than the growth inhibition rate by the above calculation (calculated value), the activity by the combination can be regarded as showing a synergistic effect.
(§6) Upland field soil was put into a 1/1,000,000 hectare pot, and seeds of various plants were sown. When the respective plants reached predetermined leaf stage, herbicidal compositions in predetermined amounts were diluted with water in an amount corresponding to 300 L/ha and applied for foliar treatment by a small sprayer.
(§7) Further, in accordance with the above Colby's formula, the growth inhibition rate (calculated value) was calculated. In Tables, with respect to the compound A, Compound Nos. in Table 1 or 3 are described, and with respect to other herbicidal compounds, common names are described.

velvetleaf = test: Example 1: pot test, foliar treatment, visually observed growth inhibition of velvetleaf; format: in vivo, Abutilon theophrasti MEDIC.
Text: as §1, §2, §3, §4, §5, §6, §7

[1] = 3.2 to 4.3 leaf stage, 21st day after application, 125 g/ha
[2] = 3.8 to 4.4 leaf stage, 21st day after application, 3.5 g/ha
[3] = 3.5 to 4.3 leaf stage, 21st day after application, 3.5 g/ha

CCOC(=O)COc1ccc(Cl)cc1Cl [2,4-D-ethyl]
Growth inhibition rate (%) of crabgrass, Measured value (crabgrass; [1]): 0%
Growth inhibition rate (%) of crabgrass, Measured value (crabgrass; 3.6 to 4.5 leaf stage, 14th day after application, 100 g/ha): 0%
Growth inhibition rate (%) of crabgrass, Measured value (crabgrass; 3.6 to 4.5 leaf stage, 22nd day after application, 200 g/ha): 25%
Growth inhibition rate (%) of velvetleaf, Measured value (velvetleaf; 2.4 to 3.2 leaf stage, 22nd day after application, 63 g/ha): 30%
Growth inhibition rate (%) of velvetleaf, Measured value (velvetleaf; [1]): 50%

CCc1cccc(C)c1N(C(=O)CCl)[C@@H](C)COC [S-Metolachlor, S-metolachlor, reference compound]
Growth inhibition rate (%) of crabgrass, Measured value (crabgrass; 4.0 to 4.5 leaf stage, 21st day after application, 300 g/ha): 8%
Growth inhibition rate (%) of crabgrass, Measured value (crabgrass; 4.0 to 5.0 leaf stage, 21st day after application, 150 g/ha): 0%
Growth inhibition rate (%) of velvetleaf, Measured value (velvetleaf; 2.4 to 3.2 leaf stage, on the 22nd day after application, foliar, active ingredient amount 150 g/ha): 0%
Growth inhibition rate (%) of velvetleaf, Measured value (velvetleaf; 2.5 to 3.3 leaf stage, 21st day after application, 150 g/ha): 0%
Growth inhibition rate (%) of velvetleaf, Measured value (velvetleaf; 2.5 to 3.3 leaf stage, 21st day after application, 300 g/ha): 0%
Growth inhibition rate (%) of velvetleaf, Measured value (velvetleaf; 3.0 to 3.5 leaf stage, 20th day after application, 150 g/ha): 0%
Growth inhibition rate (%) of velvetleaf, Measured value (velvetleaf; 3.0 to 3.5 leaf stage, 21st day after application, 150 g/ha): 0%
Growth inhibition rate (%) of velvetleaf, Measured value (velvetleaf; 3.0 to 3.5 leaf stage, 21st day after application, 300 g/ha): 0%
Growth inhibition rate (%) of velvetleaf, Measured value (velvetleaf; 3.0 to 3.8 leaf stage, 15th day after application, 15 g/ha): 0%
Growth inhibition rate (%) of velvetleaf, Measured value (velvetleaf; 3.2 to 5.0 leaf stage, 14th day after application, 150 g/ha): 0%
Growth inhibition rate (%) of velvetleaf, Measured value (velvetleaf; 3.3 to 4.2 leaf stage, 14th day after application, 150 g/ha): 0%
Growth inhibition rate (%) of velvetleaf, Measured value (velvetleaf; 3.3 to 4.2 leaf stage, 14th day after application, 300 g/ha): 0%
Growth inhibition rate (%) of velvetleaf, Measured value (velvetleaf; 3.5 to 4.3 leaf stage, 21st day after application, 150 g/ha): 0%

NCCO.O=C(O)c1nc(Cl)ccc1Cl [Clopyralid-olamine]
Growth inhibition rate (%) of crabgrass, Measured value (crabgrass; 3.0 to 4.3 leaf stage, 21st day after application, 100 g/ha): 0%
Growth inhibition rate (%) of velvetleaf, Measured value (velvetleaf; 3.3 to 4.3 leaf stage, 20th day after application, 150 g/ha): 5%
Growth inhibition rate (%) of velvetleaf, Measured value (velvetleaf; 3.3 to 4.3 leaf stage, 20th day after application, 300 g/ha): 10%
Growth inhibition rate (%) of velvetleaf, Measured value (velvetleaf; 3.5 to 4.1 leaf stage, 14th day after application, 150 g/ha): 20%
Growth inhibition rate (%) of velvetleaf, Measured value (velvetleaf; 3.5 to 4.1 leaf stage, 14th day after application, 300 g/ha): 20%

COCc1c(S(C)(=O)=O)ccc(C(=O)c2cnn(C)c2O)c1C [No. 2-191]
Growth inhibition rate (%) of crabgrass, Measured value (crabgrass; [2]): 45%
Growth inhibition rate (%) of velvetleaf, Measured value (velvetleaf; [3]): 40%

CCC(CC)Nc1c([N+](=O)[O-])cc(C)c(C)c1[N+](=O)[O-] [Pendimethalin]
inhibition at 100 g/ha (crabgrass; Digitaria sanguinalis, foliar, 3.5 to 5.0 leaf stage, 22nd day after application, 100 g/ha, read-out: Growth inhibition rate (%) of crabgrass, Measured value): 30%
inhibition at 200 g/ha (velvetleaf; Abutilon theophrasti, foliar, 3.5 to 4.0 leaf stage, 22nd day after application, 200 g/ha, read-out: Growth inhibition rate (%) of velvetleaf, Measured value): 45%

CCOCCN(C(=O)CCl)C(=C(C)C)c1ccccc1 [Pethoxamid]
Growth inhibition rate (%) of crabgrass, Measured value (crabgrass; 3.5 to 5.0 leaf stage, 22nd day after application, 100 g/ha): 0%
Growth inhibition rate (%) of velvetleaf, Measured value (velvetleaf; 3.5 to 4.0 leaf stage, 14th day after application, 200 g/ha): 60%

CCSC(=O)Oc1c(C(=O)c2ccc(S(C)(=O)=O)c(OCCOC)c2C)cnn1C [No. 55, 5-(ethylthio)carbonyloxy-1-methylpyrazol-4-yl 3-(2-methoxyethoxy)-2-methyl-4-(methylsulfonyl)phenyl ketone]
Growth inhibition rate (%) of crabgrass, Measured value (crabgrass; 4.0 to 4.5 leaf stage, 21st day after application, 15 g/ha): 85%
inhibition at 7 g/ha (crabgrass; Digitaria sanguinalis, foliar, 3.0 to 4.3 leaf stage, 21st day after application, 7 g/ha, read-out: Growth inhibition rate (%) of crabgrass, Measured value): 83%
inhibition at 15 g/ha (crabgrass; Digitaria sanguinalis, foliar, 3.0 to 4.3 leaf stage, 21st day after application, 15 g/ha, read-out: Growth inhibition rate (%) of crabgrass, Measured value): 95%
inhibition at 7 g/ha (crabgrass; Digitaria sanguinalis, foliar, 3.2 to 4.2 leaf stage, 21st day after application, 7 g/ha, read-out: Growth inhibition rate (%) of crabgrass, Measured value): 80%
inhibition at 15 g/ha (crabgrass; Digitaria sanguinalis, foliar, 3.2 to 4.2 leaf stage, 21st day after application, 15 g/ha, read-out: Growth inhibition rate (%) of crabgrass, Measured value): 98%
inhibition at 7 g/ha (crabgrass; Digitaria sanguinalis, foliar, 3.5 to 4.0 leaf stage, 21st day after application, 7 g/ha, read-out: Growth inhibition rate (%) of crabgrass, Measured value): 95%
inhibition at 15 g/ha (crabgrass; Digitaria sanguinalis, foliar, 4.0 to 4.5 leaf stage, 21st day after application, 15 g/ha, read-out: Growth inhibition rate (%) of crabgrass, Measured value): 73%
Growth inhibition rate (%) of velvetleaf, Measured value (velvetleaf; 3.0 to 3.5 leaf stage, 21st day after application, 15 g/ha): 89%
inhibition at 7 g/ha (velvetleaf; Abutilon theophrasti, foliar, 2.0 to 2.5 leaf stage, 21st day after application, 7 g/ha, read-out: Growth inhibition rate (%) of velvetleaf, Measured value): 65%
inhibition at 7 g/ha (velvetleaf; Abutilon theophrasti, foliar, 2.0 to 2.8 leaf stage, 21st day after application, 7 g/ha, read-out: Growth inhibition rate (%) of velvetleaf, Measured value): 70%
inhibition at 15 g/ha (velvetleaf; Abutilon theophrasti, foliar, 2.0 to 2.8 leaf stage, 21st day after application, 15 g/ha, read-out: Growth inhibition rate (%) of velvetleaf, Measured value): 90%
inhibition at 15 g/ha (velvetleaf; Abutilon theophrasti, foliar, 3.0 to 3.5 leaf stage, 21st day after application, 15 g/ha, read-out: Growth inhibition rate (%) of velvetleaf, Measured value): 75%

CCn1ncc(C(=O)c2ccc(S(C)(=O)=O)c(OCCOC)c2C)c1OC(=O)SC(C)C [No. 208]
Growth inhibition rate (%) of crabgrass, Measured value (crabgrass; 2.7 to 3.6 leaf stage, 21st day after application, 7.75 g/ha): 83%
Growth inhibition rate (%) of crabgrass, Measured value (crabgrass; 2.7 to 3.6 leaf stage, 21st day after application, 15.5 g/ha): 83%
Growth inhibition rate (%) of velvetleaf, Measured value (velvetleaf; 3.2 to 4.1 leaf stage, 21st day after application, 7.75 g/ha): 73%
Growth inhibition rate (%) of velvetleaf, Measured value (velvetleaf; 3.2 to 4.1 leaf stage, 21st day after application, 15.5 g/ha): 73%

COC(=O)c1c(S(C)(=O)=O)ccc(C(=O)c2cnn(C)c2O)c1C [No. 2-1]
Growth inhibition rate (%) of crabgrass, Measured value (crabgrass; [2]): 45%
Growth inhibition rate (%) of velvetleaf, Measured value (velvetleaf; [3]): 30%

CCOCc1c(S(C)(=O)=O)ccc(C(=O)c2cnn(C)c2O)c1C [No. 2-41]
Growth inhibition rate (%) of crabgrass, Measured value (crabgrass; 3.8 to 5.2 leaf stage, 21st day after application, 3.5 g/ha): 35%
Growth inhibition rate (%) of velvetleaf, Measured value (velvetleaf; 3.2 to 5.0 leaf stage, 14th day after application, 3.5 g/ha): 70%
Growth inhibition rate (%) of velvetleaf, Measured value (velvetleaf; 3.2 to 5.0 leaf stage, 21st day after application, 3.5 g/ha): 60%

CCn1ncc(C(=O)c2ccc(S(C)(=O)=O)c(OCCOC)c2C)c1O [No. 2-161]
Growth inhibition rate (%) of crabgrass, Measured value (crabgrass; 3.3 to 4.2 leaf stage, 28th day after application, 3.5 g/ha): 70%
Growth inhibition rate (%) of crabgrass, Measured value (crabgrass; 3.3 to 4.2 leaf stage, 28th day after application, 7 g/ha): 83%
Growth inhibition rate (%) of velvetleaf, Measured value (velvetleaf; 3.0 to 3.8 leaf stage, 15th day after application, 3.5 g/ha): 60%
Growth inhibition rate (%) of velvetleaf, Measured value (velvetleaf; 3.0 to 3.8 leaf stage, 15th day after application, 7 g/ha): 60%
Growth inhibition rate (%) of velvetleaf, Measured value (velvetleaf; 3.0 to 3.8 leaf stage, 28th day after application, 3.5 g/ha): 45%
Growth inhibition rate (%) of velvetleaf, Measured value (velvetleaf; 3.0 to 3.8 leaf stage, 28th day after application, 7 g/ha): 65%

COCCOc1c(S(C)(=O)=O)ccc(C(=O)c2cnn(C)c2O)c1C [No. 2-28]
Growth inhibition rate (%) of crabgrass, Measured value (crabgrass; 3.5 to 5.0 leaf stage, 22nd day after application, 7 g/ha): 88%
Growth inhibition rate (%) of crabgrass, Measured value (crabgrass; 3.5 to 5.0 leaf stage, 22nd day after application, 15 g/ha): 93%
Growth inhibition rate (%) of crabgrass, Measured value (crabgrass; 3.6 to 4.5 leaf stage, 14th day after application, 7 g/ha): 90%
Growth inhibition rate (%) of crabgrass, Measured value (crabgrass; 3.6 to 4.5 leaf stage, 14th day after application, 15 g/ha): 97%
Growth inhibition rate (%) of crabgrass, Measured value (crabgrass; 3.6 to 4.5 leaf stage, 22nd day after application, 7 g/ha): 93%
Growth inhibition rate (%) of crabgrass, Measured value (crabgrass; 4.1 to 5.3 leaf stage, 14th day after application, 15 g/ha): 85%
Growth inhibition rate (%) of crabgrass, Measured value (crabgrass; 4.1 to 5.3 leaf stage, 20th day after application, 7 g/ha): 85%
Growth inhibition rate (%) of crabgrass, Measured value (crabgrass; 4.1 to 5.3 leaf stage, 20th day after application, 15 g/ha): 97%
Growth inhibition rate (%) of crabgrass, Measured value (crabgrass; 4.3 to 4.5 leaf stage, 20th day after application, 15 g/ha): 80%
Growth inhibition rate (%) of velvetleaf, Measured value (velvetleaf; 3.3 to 4.2 leaf stage, 14th day after application, 7 g/ha): 93%
Growth inhibition rate (%) of velvetleaf, Measured value (velvetleaf; 3.3 to 4.2 leaf stage, 14th day after application, 15 g/ha): 97%
Growth inhibition rate (%) of velvetleaf, Measured value (velvetleaf; 3.3 to 4.2 leaf stage, 22nd day after application, 7 g/ha): 93%
Growth inhibition rate (%) of velvetleaf, Measured value (velvetleaf; 3.3 to 4.2 leaf stage, 22nd day after application, 15 g/ha): 97%
Growth inhibition rate (%) of velvetleaf, Measured value (velvetleaf; 3.5 to 4.0 leaf stage, 14th day after application, 7 g/ha): 83%
Growth inhibition rate (%) of velvetleaf, Measured value (velvetleaf; 3.5 to 4.0 leaf stage, 14th day after application, 15 g/ha): 95%
Growth inhibition rate (%) of velvetleaf, Measured value (velvetleaf; 3.5 to 4.0 leaf stage, 22nd day after application, 7 g/ha): 90%
Growth inhibition rate (%) of velvetleaf, Measured value (velvetleaf; 3.5 to 4.1 leaf stage, 14th day after application, 7 g/ha): 75%
Growth inhibition rate (%) of velvetleaf, Measured value (velvetleaf; 3.5 to 4.1 leaf stage, 14th day after application, 15 g/ha): 85%
Growth inhibition rate (%) of velvetleaf, Measured value (velvetleaf; 3.5 to 4.1 leaf stage, 20th day after application, 7 g/ha): 75%
Growth inhibition rate (%) of velvetleaf, Measured value (velvetleaf; 3.5 to 4.1 leaf stage, 20th day after application, 15 g/ha): 88%
